What was measured:
[1] = target: T1, GST tagged LXRbeta LBD (ligand binding domain) (Homo sapiens, UniProt P55055); assay: LanthaScreen TR-FRET Liver X Receptor Coactivator Assay, LXR beta-LBD; type: biochemical; conditions: relative to reference T0901317; for EC50: Inflection Point (potency), co-activator recruitment, read-out: LXR beta IP; for Emax: read-out: LXR beta act @ max dose (%)
T1 construct: purchased Invitrogen pv4658.pps
T1 sequence (P55055 222-460 limits assumed): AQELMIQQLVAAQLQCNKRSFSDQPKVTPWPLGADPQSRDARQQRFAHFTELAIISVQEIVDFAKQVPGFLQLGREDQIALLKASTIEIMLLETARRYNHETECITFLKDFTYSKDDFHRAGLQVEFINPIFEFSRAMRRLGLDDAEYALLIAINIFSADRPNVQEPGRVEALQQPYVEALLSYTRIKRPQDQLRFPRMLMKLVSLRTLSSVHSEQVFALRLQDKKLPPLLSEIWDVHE
In short: (§1)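 Coactivator-recruitment TR-FRET format: GST-LBD, fluorescein-labelled coactivator peptide, Tb-conjugated anti-GST antibody, incubated at RT. Potency and efficacy scaled to T0901317.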

[2] = target: T2, GST tagged LXRalpha LBD (ligand binding domain) (Homo sapiens, UniProt Q13133); assay: LanthaScreen TR-FRET Liver X Receptor Coactivator Assay, LXR alpha-LBD; type: biochemical; conditions: relative to reference T0901317; for LXR alpha IP (nM) / EC50: Inflection Point (potency), co-activator recruitment; for Emax: read-out: LXR alpha act @ max dose (%); for EC50: read-out: LXR alpha IP
T2 construct: purchased Invitrogen pv4655
T2 sequence (Q13133 209-447 limits assumed): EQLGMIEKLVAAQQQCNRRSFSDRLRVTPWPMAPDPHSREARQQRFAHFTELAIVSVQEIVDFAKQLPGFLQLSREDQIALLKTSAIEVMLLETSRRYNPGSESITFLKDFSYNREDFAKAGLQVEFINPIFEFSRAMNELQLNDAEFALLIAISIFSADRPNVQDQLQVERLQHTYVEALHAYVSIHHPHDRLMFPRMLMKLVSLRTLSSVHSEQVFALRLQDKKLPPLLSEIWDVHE
In short: as §1

[3] = activity at max dose (efficacy)

| Structure (SMILES) | EC50 [1] [nM] | Emax [1, 3] [%] | LXR alpha IP (nM) [2] | Emax [2, 3] [%] | EC50 [2] [nM] | LXR beta act @ max dose (%) [1, 3] [%] | LXR alpha act @ max dose (%) [2, 3] [%] |
| --- | --- | --- | --- | --- | --- | --- | --- |
| COc1ccc(C2(C(=O)N3CCC(C4CCN(c5ccc(C(=O)N(C)C)c(Cl)c5)CC4)CC3)CCCC2)cc1 [Example A-46, 2-chloro-4-(1′-{[1-(4-methoxyphenyl)cyclopentyl]carbonyl}-4,4′-bipiperidin-1-yl)-N,N-dimethylbenzamide] | 187 | 34 | NO IP | 0 |  |  |  |
| CN(C)C(=O)c1ccc(N2CCC(C3CCN(C(=O)C(O)(c4cccc(Cl)c4)C(F)(F)F)CC3)CC2)cc1Cl (centres unmarked) [Example A-50, 2-chloro-4-{1′-[2-(3-chlorophenyl)-3,3,3-trifluoro-2-hydroxypropanoyl]-4,4′-bipiperidin-1-yl}-N,N-dimethylbenzamide] | 93 | 99 |  | 20 | 1010 |  |  |
| CN(C)C(=O)c1ccc(N2CCC(C3CCN(C(=O)C(O)(c4ccccc4)C4CCC4)CC3)CC2)cc1Cl (centres unmarked) [Example A-51, 2-chloro-4-{1′-[cyclobutyl(hydroxy)phenylacetyl]-4,4′-bipiperidin-1-yl}-N,N-dimethylbenzamide] | 128 | 109 |  | 33 | 1590 |  |  |
| CN(C)C(=O)c1ccc(N2CCC(C3CCN(C(=O)C(O)(c4ccccc4)C4CC4)CC3)CC2)cc1Cl (centres unmarked) [Example A-52, 2-chloro-4-{1′-[cyclopropyl(hydroxy)phenylacetyl]-4,4′-bipiperidin-1-yl}-N,N-dimethylbenzamide] | 171 | 96 |  | 22 | 2070 |  |  |
| CN(C)C(=O)c1ccc(N2CCC(C3CCN(C(=O)C(O)(c4ccccc4)C(F)(F)C(F)(F)C(F)(F)F)CC3)CC2)cc1Cl (centres unmarked) [Example A-55, 2-chloro-4-[1′-(3,3,4,4,5,5,5-heptafluoro-2-hydroxy-2-phenylpentanoyl)-4,4′-bipiperidin-1-yl]-N,N-dimethylbenzamide] | 408 |  |  |  | 1340 | 93 | 25 |
| CC(=O)Oc1ccc(C(C)(C)C(=O)N2CCC(C3CCN(c4ccc(C(=O)N(C)C)c(Cl)c4)CC3)CC2)cc1 [Example A-59, 4-(2-{1′-[3-chloro-4-(dimethylcarbamoyl)phenyl]-4,4′-bipiperidin-1-yl}-1,1-dimethyl-2-oxoethyl)phenyl acetate] | 91 | 106 |  | 54 | 2630 |  |  |
| CN(C)C(=O)c1ccc(N2CCC(C3CCN(C(=O)C(C)(C)c4ccc(Cl)cc4Cl)CC3)CC2)cc1Cl [Example A-60, 2-chloro-4-{1′-[2-(2,4-dichlorophenyl)-2-methylpropanoyl]-4,4′-bipiperidin-1-yl}-N,N-dimethylbenzamide] | 33 | 109 |  | 32 | 717 |  |  |
| CCC(F)(C(=O)N1CCC(C2CCN(c3ccc(C(=O)N(C)C)c(Cl)c3)CC2)CC1)c1ccccc1 (centres unmarked) [Example A-61, 2-chloro-4-[1′-(2-fluoro-2-phenylbutanoyl)-4,4′-bipiperidin-1-yl]-N,N-dimethylbenzamide] | 56 | 115 |  | 53 | 888 |  |  |
| CN(C)C(=O)c1ccc(N2CCC(C3CCN(C(=O)C(F)(F)c4ccccc4Cl)CC3)CC2)cc1Cl [Example A-62, 2-chloro-4-{1′-[(2-chlorophenyl)(difluoro)acetyl]-4,4′-bipiperidin-1-yl}-N,N-dimethylbenzamide] | 22 | 131 |  | 74 | 782 |  |  |
| CN(C)C(=O)c1ccc(N2CCC(C3CCN(C(=O)C4(c5ccc(O)cc5)CCCC4)CC3)CC2)cc1Cl [Example A-67, 2-chloro-4-(1′-{[1-(4-hydroxyphenyl)cyclopentyl]carbonyl}-4,4′-bipiperidin-1-yl)-N,N-dimethylbenzamide] | 107 | 75 | NO IP | 26 |  |  |  |
| CN(C)C(=O)c1ccc(N2CCC(C3CCN(C(=O)C(F)(F)c4cccc(F)c4)CC3)CC2)cc1Cl [Example A-69, 2-chloro-4-{1′-[difluoro(3-fluorophenyl)acetyl]-4,4′-bipiperidin-1-yl}-N,N-dimethylbenzamide] | 86 | 113 |  | 51 | 1770 |  |  |

Other lines, results leading:

| EC50 [1] [nM] | Emax [1, 3] [%] | LXR alpha IP (nM) [2] | Emax [2, 3] [%] | EC50 [2] [nM] | LXR beta act @ max dose (%) [1, 3] [%] | LXR alpha act @ max dose (%) [2, 3] [%] | Structure (SMILES) |
| --- | --- | --- | --- | --- | --- | --- | --- |
| 178 | 78 | NO IP | 4 |  |  |  | CN(C)C(=O)c1ccc(N2CCC(C3CCN(C(=O)C4(c5ccc(Cl)cc5)CCC4)CC3)CC2)cc1Cl [Example A-47, 2-chloro-4-(1′-{[1-(4-chlorophenyl)cyclobutyl]carbonyl}-4,4′-bipiperidin-1-yl)-N,N-dimethylbenzamide] |
| 289 | 69 | NO IP | 0 |  |  |  | COc1ccc(C2(C(=O)N3CCC(C4CCN(c5ccc(C(=O)N(C)C)c(Cl)c5)CC4)CC3)CC2)cc1 [Example A-48, 2-chloro-4-(1′-{[1-(4-methoxyphenyl)cyclopropyl]carbonyl}-4,4′-bipiperidin-1-yl)-N,N-dimethylbenzamide] |
| 429 | 32 | NO IP | 16 |  |  |  | CN(C)C(=O)c1ccc(N2CCC(C3CCN(C(=O)C(O)(CCc4ccccc4)C(F)(F)F)CC3)CC2)cc1Cl (centres unmarked) [Example A-49, 2-chloro-4-{1′-[2-hydroxy-4-phenyl-2-(trifluoromethyl)butanoyl]-4,4′-bipiperidin-1-yl}-N,N-dimethylbenzamide] |
| 256 | 108 |  | 29 | 3230 |  |  | CN(C)C(=O)c1ccc(N2CCC(C3CCN(C(=O)[C@@](C)(O)c4ccccc4)CC3)CC2)cc1Cl [Example A-53, 2-chloro-4-{1′-[(2S)-2-hydroxy-2-phenylpropanoyl]-4,4′-bipiperidin-1-yl}-N,N-dimethylbenzamide] |
| 410 | 75 |  | 15 | 827 |  |  | CN(C)C(=O)c1ccc(N2CCC(C3CCN(C(=O)C(O)(c4ccccc4)C(F)(F)C(F)(F)C(F)(F)F)CC3)CC2)cc1Cl (centres unmarked) [Example A-54, 2-chloro-4-[1′-(3,3,4,4,5,5,5-heptafluoro-2-hydroxy-2-phenylpentanoyl)-4,4′-bipiperidin-1-yl]-N,N-dimethylbenzamide] |
| 64 | 120 |  | 68 | 1910 |  |  | C=C(C)CC(O)(C(=O)N1CCC(C2CCN(c3ccc(C(=O)N(C)C)c(Cl)c3)CC2)CC1)C(F)(F)F (centres unmarked) [Example A-56, 2-chloro-4-{1′-[2-hydroxy-4-methyl-2-(trifluoromethyl)pent-4-enoyl]-4,4′-bipiperidin-1-yl}-N,N-dimethylbenzamide] |
| 311 | 112 |  | 58 | 4790 |  |  | C=CCC(O)(C(=O)N1CCC(C2CCN(c3ccc(C(=O)N(C)C)c(Cl)c3)CC2)CC1)C(F)(F)F (centres unmarked) [Example A-57, 2-chloro-4-{1′-[2-hydroxy-2-(trifluoromethyl)pent-4-enoyl]-4,4′-bipiperidin-1-yl}-N,N-dimethylbenzamide] |
| 100 | 112 |  | 59 | 3690 |  |  | CN(C)C(=O)c1ccc(N2CCC(C3CCN(C(=O)C(C)(C)c4ccc(O)cc4)CC3)CC2)cc1Cl [Example A-58, 2-chloro-4-{1′-[2-(4-hydroxyphenyl)-2-methylpropanoyl]-4,4′-bipiperidin-1-yl}-N,N-dimethylbenzamide] |
| 218 | 114 |  | 52 | 2880 |  |  | CN(C)C(=O)c1ccc(N2CCC(C3CCN(C(=O)C(F)(F)c4ccc(F)cc4)CC3)CC2)cc1Cl [Example A-63, 2-chloro-4-{1′-[difluoro(4-fluorophenyl)acetyl]-4,4′-bipiperidin-1-yl}-N,N-dimethylbenzamide] |
| 54 | 144 |  | 74 | 936 |  |  | CN(C)C(=O)c1ccc(N2CCC(C3CCN(C(=O)C(F)(F)c4ccccc4)CC3)CC2)cc1Cl [Example A-64, 2-chloro-4-{1′-[difluoro(phenyl)acetyl]-4,4′-bipiperidin-1-yl}-N,N-dimethylbenzamide] |
| 280 | 91 | NO IP | 27 |  |  |  | Cc1cccc(C(O)(C(=O)N2CCC(C3CCN(c4ccc(C(=O)N(C)C)c(Cl)c4)CC3)CC2)C(F)(F)F)c1 (centres unmarked) [Example A-68, 2-chloro-N,N-dimethyl-4-{1′-[3,3,3-trifluoro-2-hydroxy-2-(3-methylphenyl)propanoyl]-4,4′-bipiperidin-1-yl}benzamide] |
| 177 | 109 |  | 52 | 3000 |  |  | CCCC(O)(C(=O)N1CCC(C2CCN(c3ccc(C(=O)N(C)C)c(Cl)c3)CC2)CC1)C(F)(F)F (centres unmarked) [Example A-70, 2-chloro-4-{1′-[2-hydroxy-2-(trifluoromethyl)pentanoyl]-4,4′-bipiperidin-1-yl}-N,N-dimethylbenzamide] |

— patent publication US20180305332A1, “Bispiperidinyl Derivatives as Liver X Receptor Beta Agonists, Compositions, and Their Use” (Merck Sharp & Dohme Corp., priority 2015, published 2018)
